Laboratory results as given in patent US20060089335A1, “Compositions and methods for enhancing cognitive function and synaptic plasticity” (priority 2003, published 2006).
“Also recorded” adds a separate entry of the source.

Legend:
[1] = test system: presynaptic terminals of cultured hippocampal neurons; assay: TBS-induced presynaptic plasticity measured by FM 1-43 dye uptake in hippocampal cultures; assay type: cell-based, rat
[2] = molecular target: NMDA receptors (NR2B-containing) (Rattus norvegicus, UniProt P35439+Q00960); assay: evoked NMDA currents ([…]), double-perforated patch; assay type: cell-based
Chain of NMDA receptors (NR2B-containing) (Q00960 27-1482, other chains not shown): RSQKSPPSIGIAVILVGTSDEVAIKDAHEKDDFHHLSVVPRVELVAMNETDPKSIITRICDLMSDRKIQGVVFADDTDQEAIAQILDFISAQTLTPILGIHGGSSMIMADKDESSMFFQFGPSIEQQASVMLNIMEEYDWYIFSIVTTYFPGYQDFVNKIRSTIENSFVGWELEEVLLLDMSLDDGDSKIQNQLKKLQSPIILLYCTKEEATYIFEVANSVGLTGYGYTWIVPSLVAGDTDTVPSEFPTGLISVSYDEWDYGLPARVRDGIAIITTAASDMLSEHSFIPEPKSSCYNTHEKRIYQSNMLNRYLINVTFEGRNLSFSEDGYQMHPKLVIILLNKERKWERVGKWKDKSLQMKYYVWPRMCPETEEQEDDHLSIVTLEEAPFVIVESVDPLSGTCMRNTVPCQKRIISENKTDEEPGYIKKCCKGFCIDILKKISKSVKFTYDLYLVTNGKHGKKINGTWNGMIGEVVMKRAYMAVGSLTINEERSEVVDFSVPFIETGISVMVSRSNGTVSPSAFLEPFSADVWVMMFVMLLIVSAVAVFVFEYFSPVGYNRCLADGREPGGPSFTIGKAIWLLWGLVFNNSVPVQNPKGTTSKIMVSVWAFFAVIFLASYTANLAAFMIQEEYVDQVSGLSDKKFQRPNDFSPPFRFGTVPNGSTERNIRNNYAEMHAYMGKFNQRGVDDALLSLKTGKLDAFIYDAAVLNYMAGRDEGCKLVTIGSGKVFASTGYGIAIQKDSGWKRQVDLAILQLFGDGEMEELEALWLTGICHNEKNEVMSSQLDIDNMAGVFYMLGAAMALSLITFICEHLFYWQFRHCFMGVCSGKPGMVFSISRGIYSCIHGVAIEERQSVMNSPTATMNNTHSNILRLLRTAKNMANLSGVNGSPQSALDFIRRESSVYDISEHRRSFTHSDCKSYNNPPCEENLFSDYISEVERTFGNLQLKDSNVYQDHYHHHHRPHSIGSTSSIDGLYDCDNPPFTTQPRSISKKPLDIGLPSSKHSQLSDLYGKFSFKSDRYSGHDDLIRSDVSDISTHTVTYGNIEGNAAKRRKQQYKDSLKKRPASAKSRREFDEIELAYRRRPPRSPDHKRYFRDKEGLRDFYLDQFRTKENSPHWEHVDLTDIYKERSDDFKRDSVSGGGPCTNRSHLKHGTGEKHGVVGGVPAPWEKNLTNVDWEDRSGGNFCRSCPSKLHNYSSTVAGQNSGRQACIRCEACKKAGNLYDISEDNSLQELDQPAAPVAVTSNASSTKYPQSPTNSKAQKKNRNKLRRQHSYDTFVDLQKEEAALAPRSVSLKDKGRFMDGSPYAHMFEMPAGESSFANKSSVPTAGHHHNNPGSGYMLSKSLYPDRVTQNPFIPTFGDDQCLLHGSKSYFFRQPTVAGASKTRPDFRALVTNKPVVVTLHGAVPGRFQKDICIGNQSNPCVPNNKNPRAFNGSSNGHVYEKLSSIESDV
Procedure: Electrophysiology. Dual whole cell perforated patch clamp recordings were made on two interconnected cultured hippocampal pyramidal neurons. Perforated patch pipettes were front-filled with a solution containing (in mM): CsOH, 127; D-gluconic acid, 127; CsCl, 4; HEPES, 10; NaCl, 8; EGTA, 0.4; pH was adjusted to 7.25 with CsOH, and then back-filled with the same solution containing […] amphotericin B (Sigma, St. Louis, Mo.). Extracellular solution contained (in mM): NaCl, 145; KCl, 3; glucose, 15; HEPES, 10; MgCl2, 0.8-1.2; CaCl2, 1.2; 0.005 glycine (Sigma), 0.05 picrotoxin (Sigma); pH adjusted to 7.4 with NaOH. MgCl2 concentration was matched to its concentration in culture medium. In experiments where effects of drugs on neuronal activity were quantified (FIG. 4D), recordings were done in culture medium (with HEPES replacing bicarbonate/CO2 to maintain pH). All experiments were performed at room temperature. For assaying synaptic connectivity, each neuron was stimulated by 1 ms step depolarization from −70 to +30 mV in voltage-clamp mode. Only neurons with monosynaptic connections were used. […] Recordings with access resistance>20 MΩ or that varied substantially were rejected from analysis.
We hypothesized that one target may be the number and properties of NMDA receptors at individual synapses.

GluR1 = assay: quantitative Western blotting of hippocampal homogenate; assay type: in vivo, rat; conditions: baclofen 0.07 mg/kg/day in drinking water, 4 months; rats' hippocampus
Procedure: (§1) Quantitative Western blotting. Samples of hippocampal homogenate (10 ug/sample) were resolved on polyacrylamide gels, transferred to PVDF, and probed with anti-NR1 (Chemicon), NR2A (Upstate) or NR2B (Santa Cruz Biotech), GluR1 (Chemicon), Synapsin1 (American Qualex), or PSD-95 (Upstate) antibody followed by the appropriate secondary antibody coupled to horseradish peroxidase (1:10,000, Santa Cruz Biotech) in Tris-buffered saline (pH 7.3) containing 5% dry milk and 0.1% Tween (BioRad). Visualization of immunoreactive bands was achieved by enhanced chemiluminescence (Perkin Elmer Biosciences) and captured on autoradiography film (Kodak Scientific). Standard curves, in which the amount of protein was varied systematically, were constructed to establish that we operated within the linear range of the chemiluminescence detection method. In addition, each immunoblot was exposed to autoradiography film multiple times (average 7; minimum 5) for varying duration to make sure we operated in the linear range of the film for each experiment. Digital images, produced by scanning films on a Epson 3200 Scanner (Epson) with Epson Scan Software (Epson), were quantified using GelPro Analyzer 3.1 software. The integrated optical density (IOD) of each immunoreactive band from hippocampal samples relative to baseline measured immediately above and below the band in the same lane, and normalized by the actin or neurofilament band also in the same lane. Group data (eight animals per group) are represented as the mean+/−SEM of the IOD of samples.

NR2B = assay: as above; assay type: in vivo, rat
Procedure: as §1

[3] = test system: excitatory and inhibitory terminals; conditions: short treatment (2-24 hr)
[4] = general status of treated rats; conditions: chronic treatment in drinking water, 4 months

NCC(CC(=O)O)c1ccc(Cl)cc1 (stereo not shown) [baclofen, 4-amino-3-(4-chlorophenyl) butanoic acid]
effect of theta-burst induction in treated cultures ([1]; 4-6 hours treatment, baclofen 20 μm, NBQX 1 μm, flunitrazepam 5 μm): Both the number of functional synapses and the probability of release increased | plasticity of presynaptic terminals (S2/S1) ([1]; baclofen 10 μM, short term (4-6 hours) and long term (48 hours)): induced enhancement of plasticity for both short term (4-6 hours) and long term (48 hours) periods of time; also recorded: enhances plasticity of presynaptic terminals | τdecay of EPSCNMDA, representative trace ([2]; baclofen-treated neurons, FIG. 7A): 200 ms | τdecay of EPSCNMDA, average ([2]; baclofen-treated neurons, N=6): 176 ± 30 ms | ifenprodil-sensitivity of EPSCNMDA in treated versus control cultures ([2]; ifenprodil 3 μM, baclofen 10 μM 6 hours or 1.2 mM Mg): triggered increased sensitivity of the EPSCNMDA to ifenprodil; also recorded: more sensitive to ifenprodil; also recorded: increases the sensitivity of EPSCNMDA to ifenprodil | GLUR1 expression level (GluR1): significant enhancement; also recorded: increases expression level | NR2B expression level (NR2B; baclofen 0.07 mg/kg/day in drinking water, 4 months, rats' hippocampus): significant enhancement; also recorded: increases expression level | increase in levels of NR2B protein (NR2B; baclofen treatment (FIG. 10)): approximately 60% | change of synaptic density [3]: No short treatment (2-24 hr, baclofen, nimodepine, NBQX, and TTX) produced a significant change of synaptic density | general status of the rats (body weight, mobility) [4]: did not observe any significant change in the general status
